The supplement of paper PMC10307832

Assays:
Assay in all cases: relative viability (nuclei count vs DMSO), 5 days (fraction); higher = more cells survive
[1] = system: HCC-44
Summary of the method: (§1)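 Lung cancer cell lines, seeded in 1536-well plates, were treated the following day by pin tool with a single drug or with five library-drug doses (not always all listed) in √10 steps on top of a fixed anchor-drug dose. Cells were fixed and nuclei stained in one step after 5 days, and nuclei were counted. Relative viability is the nuclei count for treated wells divided by that for vehicle wells, reported as medians of duplicate plates.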

[2] = system: HCC-827
Summary of the method: as §1

[3] = system: NCI-H650
Summary of the method: as §1

[4] = system: EKVX
Summary of the method: as §1

[5] = system: SW 1573
Summary of the method: as §1

[6] = system: NCI-H1975
Summary of the method: as §1

[7] = system: NCI-H1666
Summary of the method: as §1

[8] = system: H3255
Summary of the method: as §1

[9] = system: NCI-H2085
Summary of the method: as §1

[10] = system: COR-L 105
Summary of the method: as §1

[11] = system: LU99A
Summary of the method: as §1

[12] = system: BEN
Summary of the method: as §1

[13] = system: NCI-H2170
Summary of the method: as §1

[14] = system: 201T
Summary of the method: as §1

[15] = system: NCI-H1437
Summary of the method: as §1

[16] = system: PC-3 [JPC-3]
Summary of the method: as §1

[17] = system: NCI-H2087
Summary of the method: as §1

[18] = system: LCLC-97TM1
Summary of the method: as §1

[19] = system: EPLC-272H
Summary of the method: as §1

[20] = system: NCI-H647
Summary of the method: as §1

[21] = system: LOU-NH91
Summary of the method: as §1

O=c1cc(N2CCOCC2)oc2c(-c3cccc4c3sc3ccccc34)cccc12 + CS(=O)(=O)CCNCc1ccc(-c2ccc3ncnc(Nc4ccc(OCc5cccc(F)c5)c(Cl)c4)c3c2)o1 [Lapatinib] (partner 2 µM)
relative viability ([1]; first compound 0.01 µM): 1.01
relative viability ([1]; first compound 0.03162 µM): 0.995
relative viability ([1]; first compound 0.1 µM): 1.11
relative viability ([1]; first compound 0.3162 µM): 0.946
relative viability ([1]; first compound 1 µM): 1.07
relative viability ([2]; first compound 0.01 µM): 0.222
relative viability ([2]; first compound 0.03162 µM): 0.213
relative viability ([2]; first compound 0.1 µM): 0.215
relative viability ([2]; first compound 0.3162 µM): 0.186
relative viability ([2]; first compound 1 µM): 0.256
relative viability ([3]; first compound 0.01 µM): 0.769
relative viability ([3]; first compound 0.03162 µM): 0.973
relative viability ([3]; first compound 0.3162 µM): 1.17
relative viability ([3]; first compound 1 µM): 0.77
relative viability ([4]; first compound 0.01 µM): 0.218
relative viability ([4]; first compound 0.03162 µM): 0.216
relative viability ([4]; first compound 0.1 µM): 0.196
relative viability ([4]; first compound 0.3162 µM): 0.202
relative viability ([4]; first compound 1 µM): 0.219
relative viability ([5]; first compound 0.01 µM): 0.21
relative viability ([5]; first compound 0.03162 µM): 1.22
relative viability ([5]; first compound 0.1 µM): 1.06
relative viability ([5]; first compound 0.3162 µM): 1.07
relative viability ([5]; first compound 1 µM): 1.14
relative viability ([6]; first compound 0.01 µM): 0.856
relative viability ([6]; first compound 0.03162 µM): 0.84
relative viability ([6]; first compound 0.1 µM): 0.848
relative viability ([6]; first compound 0.3162 µM): 0.849
relative viability ([6]; first compound 1 µM): 0.826
relative viability ([7]; first compound 0.01 µM): 0.555
relative viability ([7]; first compound 0.03162 µM): 0.735
relative viability ([7]; first compound 0.1 µM): 0.715
relative viability ([7]; first compound 0.3162 µM): 0.614
relative viability ([7]; first compound 1 µM): 0.591
relative viability ([8]; first compound 0.01 µM): 0.222
relative viability ([8]; first compound 0.03162 µM): 0.286
relative viability ([8]; first compound 0.1 µM): 0.258
relative viability ([8]; first compound 0.3162 µM): 0.225
relative viability ([8]; first compound 1 µM): 0.248
relative viability ([9]; first compound 0.01 µM): 0.796
relative viability ([9]; first compound 0.03162 µM): 0.757
relative viability ([9]; first compound 0.1 µM): 0.775
relative viability ([9]; first compound 0.3162 µM): 0.734
relative viability ([9]; first compound 1 µM): 0.751
relative viability ([10]; first compound 0.01 µM): 0.384
relative viability ([10]; first compound 0.03162 µM): 0.327
relative viability ([10]; first compound 0.1 µM): 0.397
relative viability ([10]; first compound 0.3162 µM): 0.379
relative viability ([10]; first compound 1 µM): 0.412
relative viability ([11]; first compound 0.01 µM): 1.11
relative viability ([11]; first compound 0.03162 µM): 1.04
relative viability ([11]; first compound 0.1 µM): 0.921
relative viability ([11]; first compound 0.3162 µM): 1.02
relative viability ([11]; first compound 1 µM): 1.07
relative viability ([12]; first compound 0.01 µM): 0.662
relative viability ([12]; first compound 0.03162 µM): 0.843
relative viability ([12]; first compound 0.1 µM): 0.69
relative viability ([12]; first compound 0.3162 µM): 0.735
relative viability ([12]; first compound 1 µM): 0.67
relative viability ([13]; first compound 0.01 µM): 0.241
relative viability ([13]; first compound 0.03162 µM): 0.25
relative viability ([13]; first compound 0.1 µM): 0.253
relative viability ([13]; first compound 0.3162 µM): 0.285
relative viability ([13]; first compound 1 µM): 0.274
relative viability ([14]; first compound 0.01 µM): 1.11
relative viability ([14]; first compound 0.03162 µM): 1.03
relative viability ([14]; first compound 0.1 µM): 1.06
relative viability ([14]; first compound 0.3162 µM): 0.997
relative viability ([14]; first compound 1 µM): 0.968
relative viability ([15]; first compound 0.01 µM): 0.793
relative viability ([15]; first compound 0.03162 µM): 0.783
relative viability ([15]; first compound 0.1 µM): 0.811
relative viability ([15]; first compound 0.3162 µM): 0.849
relative viability ([15]; first compound 1 µM): 0.813
relative viability ([16]; first compound 0.01 µM): 0.492
relative viability ([16]; first compound 0.03162 µM): 0.435
relative viability ([16]; first compound 0.1 µM): 0.462
relative viability ([16]; first compound 0.3162 µM): 0.421
relative viability ([16]; first compound 1 µM): 0.423
relative viability ([17]; first compound 0.01 µM): 0.847
relative viability ([17]; first compound 0.03162 µM): 1.11
relative viability ([17]; first compound 0.1 µM): 1.2
relative viability ([17]; first compound 0.3162 µM): 0.938
relative viability ([17]; first compound 1 µM): 1.17
relative viability ([18]; first compound 0.01 µM): 1.09
relative viability ([18]; first compound 0.03162 µM): 1.57
relative viability ([18]; first compound 0.3162 µM): 1.13
relative viability ([18]; first compound 1 µM): 0.727
relative viability ([19]; first compound 0.01 µM): 1.15
relative viability ([19]; first compound 0.03162 µM): 1.12
relative viability ([19]; first compound 0.3162 µM): 0.928
relative viability ([19]; first compound 1 µM): 0.825
relative viability ([20]; first compound 0.01 µM): 0.95
relative viability ([20]; first compound 0.03162 µM): 1.22
relative viability ([20]; first compound 0.1 µM): 1.04
relative viability ([20]; first compound 0.3162 µM): 1.22
relative viability ([20]; first compound 1 µM): 1
relative viability ([21]; first compound 0.01 µM): 0.775
relative viability ([21]; first compound 0.03162 µM): 0.774
relative viability ([21]; first compound 0.1 µM): 0.755
relative viability ([21]; first compound 0.3162 µM): 0.744
relative viability ([21]; first compound 1 µM): 0.764
